According to ChEMBL document CHEMBL3885881, “DrugMatrix”:

Species on record: Rattus norvegicus
Test: DrugMatrix - Regimen: Daily Repeat
Type: toxicity, organism-based, Sprague-Dawley
Design: regimen Daily Repeat, gender Male, age 6-8 weeks
Conditions: in vivo, iv, vehicle 100 % SALINE; for ABSOLUTE BASOPHIL / ABSOLUTE EOSINOPHIL / ABSOLUTE LYMPHOCYTE / ABSOLUTE MONOCYTE / ABSOLUTE SEGMENTED NEUTROPHIL / BASOPHIL / EOSINOPHIL / ERYTHROCYTE COUNT / HEMATOCRIT / LEUKOCYTE COUNT / LYMPHOCYTE / MEAN CORPUSCULAR HEMOGLOBIN / MEAN CORPUSCULAR HEMOGLOBIN CONCENTRATION / MONOCYTE / NEUTROPHIL / NUCLEATED RED BLOOD CELLS / PLATELET COUNT / HEMOGLOBIN: tissue Blood
[1] = 6 mg/kg, 72 h, tissue Plasma, dose level Low, time 3 day
[2] = 6 mg/kg, 120 h, dose level Low, time 5 day
[3] = 6 mg/kg, 120 h, tissue Plasma, dose level Low, time 5 day
[4] = 14 mg/kg, 72 h, dose level High, time 3 day
[5] = 14 mg/kg, 72 h, tissue Plasma, dose level High, time 3 day
[6] = 14 mg/kg, 120 h, dose level High, time 5 day
[7] = 14 mg/kg, 120 h, tissue Plasma, dose level High, time 5 day

## CARBOPLATIN
[1]
  TOTAL PROTEIN: 6.3 G/DL
  URIC ACID: 1.1 mg/dL
[2]
  ABSOLUTE BASOPHIL: 0 CELLS/uL
  ABSOLUTE EOSINOPHIL: 0 CELLS/uL
  ABSOLUTE LYMPHOCYTE: 10376.67 CELLS/uL
  ABSOLUTE MONOCYTE: 36 CELLS/uL
  ABSOLUTE SEGMENTED NEUTROPHIL: 287.33 CELLS/uL
  BASOPHIL: 0%
  EOSINOPHIL: 0%
  ERYTHROCYTE COUNT: 5.55 x10E6/uL
  HEMATOCRIT: 34.6%
  LEUKOCYTE COUNT: 10.7 x10E3/uL
  LYMPHOCYTE: 97%
  MEAN CORPUSCULAR HEMOGLOBIN: 24.17 pg
  MEAN CORPUSCULAR HEMOGLOBIN CONCENTRATION: 38.73 G/DL
  MONOCYTE: 0.33%
  NEUTROPHIL: 2.67%
  NUCLEATED RED BLOOD CELLS: 0.33 /100WBC
  PLATELET COUNT: 1189.33 x10E3/uL
[3]
  ALANINE AMINOTRANSFERASE: 46 u/L
  ALKALINE PHOSPHATASE: 366 u/L
  ASPARTATE AMINOTRANSFERASE: 90.67 u/L
  CARBON DIOXIDE: 29 mmol/L
  CHOLESTEROL: 74.67 mg/dL
  CREATINE PHOSPHOKINASE: 348 u/L
  CREATININE: 0.38 mg/dL
  GLUCOSE: 158.33 mg/dL
  LACTATE DEHYDROGENASE: 130.67 u/L
  LIPASE: 9 u/L
  PHOSPHORUS: 10.43 mg/dL
  POTASSIUM: 5.45 MEQ/L
  TOTAL BILIRUBIN: 0.17 mg/dL
  TOTAL PROTEIN: 6.07 G/DL
  URIC ACID: 0.87 mg/dL
[4]
  ABSOLUTE BASOPHIL: 0 CELLS/uL
  ABSOLUTE EOSINOPHIL: 14 CELLS/uL
  ABSOLUTE LYMPHOCYTE: 7854 CELLS/uL
  ABSOLUTE MONOCYTE: 121.33 CELLS/uL
  ABSOLUTE SEGMENTED NEUTROPHIL: 410.67 CELLS/uL
  BASOPHIL: 0%
  EOSINOPHIL: 0.33%
  ERYTHROCYTE COUNT: 6.2 x10E6/uL
  HEMATOCRIT: 38.03%
  HEMOGLOBIN: 15.03 G/DL
  LEUKOCYTE COUNT: 8.4 x10E3/uL
  LYMPHOCYTE: 94%
  MEAN CORPUSCULAR HEMOGLOBIN: 24.43 pg
  MEAN CORPUSCULAR HEMOGLOBIN CONCENTRATION: 39.67 G/DL
  NEUTROPHIL: 4%
  NUCLEATED RED BLOOD CELLS: 1 /100WBC
  PLATELET COUNT: 574 x10E3/uL
[5]
  ALANINE AMINOTRANSFERASE: 46.67 u/L
  ALBUMIN: 4.5 G/DL
  ALKALINE PHOSPHATASE: 398.67 u/L
  ASPARTATE AMINOTRANSFERASE: 94.33 u/L
  BLOOD UREA NITROGEN: 15.67 mg/dL
  CARBON DIOXIDE: 29.33 mmol/L
  CHLORIDE: 97 MEQ/L
  CHOLESTEROL: 78.33 mg/dL
  CREATINE PHOSPHOKINASE: 381 u/L
  CREATININE: 0.22 mg/dL
  GLUCOSE: 145.33 mg/dL
  LACTATE DEHYDROGENASE: 168.33 u/L
  LIPASE: 11 u/L
  POTASSIUM: 6.3 MEQ/L
  TOTAL BILIRUBIN: 0.23 mg/dL
  TOTAL PROTEIN: 6.6 G/DL
  URIC ACID: 1.1 mg/dL
[6]
  ABSOLUTE BASOPHIL: 0 CELLS/uL
  ABSOLUTE EOSINOPHIL: 0 CELLS/uL
  ABSOLUTE LYMPHOCYTE: 7567 CELLS/uL
  ABSOLUTE MONOCYTE: 38.67 CELLS/uL
  ABSOLUTE SEGMENTED NEUTROPHIL: 427.67 CELLS/uL
  BASOPHIL: 0%
  EOSINOPHIL: 0%
  ERYTHROCYTE COUNT: 5.69 x10E6/uL
  HEMATOCRIT: 34.77%
  HEMOGLOBIN: 13.5 G/DL
  LEUKOCYTE COUNT: 8.03 x10E3/uL
  LYMPHOCYTE: 94.33%
  MEAN CORPUSCULAR HEMOGLOBIN CONCENTRATION: 38.83 G/DL
  MONOCYTE: 0.33%
  NEUTROPHIL: 5.33%
  NUCLEATED RED BLOOD CELLS: 0.33 /100WBC
  PLATELET COUNT: 1070.33 x10E3/uL
[7]
  ALANINE AMINOTRANSFERASE: 54 u/L
  ALKALINE PHOSPHATASE: 340 u/L
  ASPARTATE AMINOTRANSFERASE: 84.33 u/L
  BLOOD UREA NITROGEN: 18 mg/dL
  CARBON DIOXIDE: 28 mmol/L
  CHOLESTEROL: 71.67 mg/dL
  CREATINE PHOSPHOKINASE: 378.67 u/L
  CREATININE: 0.28 mg/dL
  GLUCOSE: 151.67 mg/dL
  LACTATE DEHYDROGENASE: 133 u/L
  LIPASE: 11.67 u/L
  PHOSPHORUS: 10.93 mg/dL
  POTASSIUM: 4.99 MEQ/L
  TOTAL BILIRUBIN: 0.17 mg/dL
  TOTAL PROTEIN: 6.07 G/DL
  URIC ACID: 0.83 mg/dL
